In patent publication US20050152835A1, “Technetium-99M glucarate methods of use for monitoring tissues” (priority 2003, published 2005):
Each block holds one molecule with its values, some of them ahead of it.

Tests used:
[1] = target: T1, adenosine A1 receptor (Rattus norvegicus, UniProt P25099); assay: Adenosine receptor-mediated cardioprotection in rat hearts with ischemia-reperfusion, assessed by 99mTc-glucarate imaging; type: in vivo
T1 construct: from tissue; host or cells: living rat, heart (myocardium) in vivo
T1 sequence (P25099 1-326): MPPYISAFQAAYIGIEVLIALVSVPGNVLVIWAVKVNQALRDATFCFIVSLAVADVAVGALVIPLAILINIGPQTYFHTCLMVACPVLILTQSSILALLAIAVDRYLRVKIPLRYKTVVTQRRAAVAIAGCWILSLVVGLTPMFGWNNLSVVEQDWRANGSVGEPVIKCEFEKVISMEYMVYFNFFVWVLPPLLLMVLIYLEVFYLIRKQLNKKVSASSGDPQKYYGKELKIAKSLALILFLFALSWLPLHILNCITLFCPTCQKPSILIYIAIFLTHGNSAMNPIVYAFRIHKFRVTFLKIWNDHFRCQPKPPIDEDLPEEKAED
Experimental: Experimental groups in this example included: Group-I (IR30, n=11): Animals subjected to a treatment of 30-min regional myocardial ischemia and 30-min reperfusion by ligating and releasing the left coronary artery (LCA). Group-II: (IPC Group, n=6): Rats were preconditioned with a sequence of 6 cycles of 4-min LCA occlusion and 4-min re-flow; 10 min later, the rats underwent a 30-min LCA occlusion followed by 30-min re-flow. Group-III (CCPA, n=6): rat chests were opened for the equivalent time for IPC in Group-II. Ten minutes prior to 30-min LCA occlusion and 30-min reperfusion, CCPA (40 μg/kg) was intravenously injected with 5 cycles of 4-min infusion and 4-min no infusion. Group-IV (SPT, n=5): animals subjected to IPC as the protocol in Group-II, SPT (10 mg/kg) was intravenously infused 2-min before and during subsequent ischemia-reperfusion.
Treatments in this example consisted of control (IR30, n=8): no preconditioning; equivalent open-chest time; IPC (n=6): 4-min LCA occlusion, 4-min reflow, 5 cycles; CCPA (n=6): 4-min IV infusion, 4-min no infusion, 5 cycles; SPT (n=4): IPC first, SPT IV infusion 2 min before and during LCA occlusion and re-flow.

[2] = tested on: plasmocytoma (localized myeloma); assay: Scintigraphy of a patient with plasmocytoma of T8; type: in vivo, human; conditions: for scan finding at diagnosis: patient with lytic lesion of T8, posterior view
Experimental: A patient complaining of invalidation pain in the spine (mid-thorax) for about two months. Peak of monoclonal IgG-k in serum. Bence-Jones protein in urine. Spine CT. lytic lesion of T8, with soft tissue infiltration. […] Uptake was obvious in the early images, 15 and 30 min p.i., late acquisition, 6 hr p.i., made the tracer uptake much more obvious.

[3] = tested on: MCF7/S tumor xenograft; assay: FASTSPECT dynamic imaging and tumor washout kinetics, drug-sensitive xenograft; type: in vivo, SCID mice
Experimental: (§1) Tumor cell lines used. MCF7/S: Cells are parental, drug (doxorubicin) sensitive, breast carcinoma cells. MCF7/D40: Cells were generated in vitro by successive culturing parental MCF7 cells in slowly increasing concentrations of doxorubicin with a total selection time of 31 months. Twenty-eight SCID mice were studied. MCF7/S or MCF7/D40 tumors were grown for 10-14 days after subcutaneous injection of 1×10^6 cells into the right thigh. Groups of mice with the xenografted tumors included: (MCF7/S group: MIBI: n=9; GLA: n=8) and (MCF7/D40 group: MIBI: n=6; GLA: n=5).
(§2) The dynamic imaging system SPECT consisted of 24 small modular gamma cameras. Each modular camera consists of a 10 cm×10 cm NaI(Tl) scintillation crystal, 4 square (5 cm×5 cm) Hamamatsu photomultiplier tubes. The system included a cylindrical aperture with twenty four 1-mm diameter pinholes drilled in the aperture. A point source in the center of the field of view is projected simultaneously to the center of each camera. Total magnification is 3.5 in a 3.0 cm×3.2 cm×3.2 cm field of view. The spatial resolution of the system is about 1.0 mm, with a sensitivity of 13.3 cps/μCi.
(§3) ^99mTc-GLA or ^99mTc-MIBI (5-8 mCi, 185-296 MBq) was injected via a jugular vein catheter. Dynamic images were acquired for 2 hours. Twenty-four projections were obtained, one from each camera. Each scintillation event within the camera's NaI crystal was registered as the digitized outputs from the camera's four photomultiplier tubes. The four photomultiplier outputs were compared to a 20-bit look-up table derived from a calibration procedure that involved moving a collimated source across the camera face.
(§4) Tumor image reconstruction was performed using 100 iterations of the maximum-likelihood expectation-maximization (ML-EM) algorithm. Using SlicerDicer software, three-dimensional images were computed to provide images in a 33×49×49 voxels format, and generate tomographic transaxial, coronal and sagittal slices with one-pixel thickness (1.0 mm). Regions of interest (ROI) over the tumors were created and applied to the dynamic images for determining time-activity curves. The percent washout rate relative to the peak uptake of the tumors were calculated.

[4] = tested on: MCF7/D40 tumor xenograft; assay: FASTSPECT dynamic imaging and tumor washout kinetics, drug-resistant (Pgp positive) xenograft; type: in vivo, SCID mice; conditions: for time window after injection in which tumor could be localized/visualized: then activity dropped to background
Experimental: as §1, §2, §3, §4

[5] = tested on: MCF7/S tumors; assay: Biodistribution in mice bearing MCF7/S tumors; type: in vivo, SCID mice
Experimental: as §1, §3
(§5) Tumors and organs were harvested and counted in a dose calibrator. The percent injected dose per gram (% ID/g) was calculated. Membrane preparations made from MCF7/S and MCF7/D40 tumors were immunoblotted with the mouse monoclonal antibody C219 against Pgp followed by a secondary antibody, which was detected by chemiluminescence. […] No immunodetectable MDR1 Pgp was presented in MCF7/S cells.

[6] = tested on: MCF7/D40 tumors; assay: Biodistribution in mice bearing MCF7/D40 tumors; type: in vivo, SCID mice
Experimental: as §1, §3, §5

[7] = tested on: breast cancer; conditions: cited from earlier work
[8] = tested on: MCF7/D40 cells; assay: Drug resistance of MCF7/D40 cells relative to MCF7/S; type: cell-based, human
[9] = Table 2, MCF7/S mice, 2 hours after injection
[10] = Table 4 (Example 3), MCF7/S mice
[11] = Table 2, MCF7/D40 mice, 2 hours after injection
[12] = Table 4 (Example 3), MCF7/D40 mice

- effect on cardioprotection of ischemic preconditioning (IPC) ([1]; 40 μg/kg i.v. instead of IPC, before 30-min LCA occlusion and 30-min reperfusion): simulated
Compound: OC[C@H]1O[C@@H](n2cnc3c(NC4CCCC4)nc(Cl)nc32)[C@H](O)[C@@H]1O [CCPA, 2-chloro-N6-cyclopentyladenosine]

- effect on cardioprotection of ischemic preconditioning (IPC) ([1]; 10 mg/kg i.v. infusion after IPC, before and during ischemia-reperfusion): blocked
Compound: Cn1c(=O)c2[nH]c(-c3ccc(S(=O)(=O)O)cc3)nc2n(C)c1=O [SPT, 8-(p-sulfophenyl)-theophylline]

Compound: O.O.O=P([O-])([O-])CP(=O)([O-])[O-].[99Tc+4] [^99mTc-MDP]
- scan finding at diagnosis [2]: focally increased uptake corresponding to T8
- scan finding after about 1 year of stabilization and external radiotherapy ([2]; posterior view): inhomogeneous tracer distribution, without clear focally increased uptake

Compound: [C-]#[N+]CC(C)(C)OC.[C-]#[N+]CC(C)(C)OC.[C-]#[N+]CC(C)(C)OC.[C-]#[N+]CC(C)(C)OC.[C-]#[N+]CC(C)(C)OC.[C-]#[N+]CC(C)(C)OC.[Tc] [^99mTc-sestamibi, reference compound]
- two-hour fractional washout (% peak activity) [3]: 50.2±5.3%
- time after injection until which tumor stayed visualized/detectable ([3]; FASTSPECT, 120 min acquisition): 120 min
- two-hour fractional washout (% peak activity) [4]: 71.7±1.7%
- time window after injection in which tumor could be localized/visualized [4]: 2 to 4 min
- time window after injection in which tumor could be localized/visualized ([4]; listed as 99mTc-MIBI): 2 to 3 min
- Biodistribution, blood [5, 9]: 0.06 ± 0.01 % ID/gm
- Biodistribution, heart [5, 9]: 10.61 ± 0.89 % ID/gm
- Biodistribution, kidneys [5, 9]: 21.32 ± 2.03 % ID/gm
- Biodistribution, liver [5, 9]: 7.02 ± 1.01 % ID/gm
- Biodistribution, lung [5, 9]: 0.95 ± 0.16 % ID/gm
- Biodistribution, muscle [5, 9]: 1.37 ± 0.12 % ID/gm
- Biodistribution, tumor [5, 9]: 0.64 ± 0.07 % ID/gm
- Biodistribution, blood [5, 10]: 0.06 ± 0.01 % ID/g
- Biodistribution, heart [5, 10]: 10.61 ± 0.89 % ID/g
- Biodistribution, kidneys [5, 10]: 21.32 ± 2.03 % ID/g
- Biodistribution, liver [5, 10]: 7.02 ± 1.01 % ID/g
- Biodistribution, lung [5, 10]: 0.95 ± 0.16 % ID/g
- Biodistribution, muscle [5, 10]: 1.37 ± 0.12 % ID/g
- Biodistribution, tumor [5, 10]: 0.64 ± 0.07 % ID/g
- Tumor/Blood ratio [5, 10]: 13.97 ± 2.89
- Tumor/Muscle ratio [5, 10]: 0.48 ± 0.05
- Biodistribution, blood [6, 11]: 0.07 ± 0.01 % ID/gm
- Biodistribution, heart [6, 11]: 9.78 ± 1.65 % ID/gm
- Biodistribution, kidneys [6, 11]: 17.71 ± 3.13 % ID/gm
- Biodistribution, liver [6, 11]: 7.67 ± 1.52 % ID/gm
- Biodistribution, lung [6, 11]: 0.61 ± 0.12 % ID/gm
- Biodistribution, muscle [6, 11]: 1.09 ± 0.32 % ID/gm
- Biodistribution, tumor [6, 11]: 0.27 ± 0.05 % ID/gm
- Biodistribution, blood [6, 12]: 0.07 ± 0.01 % ID/g
- Biodistribution, heart [6, 12]: 9.84 ± 1.39 % ID/g
- Biodistribution, kidneys [6, 12]: 19.63 ± 3.48 % ID/g
- Biodistribution, liver [6, 12]: 8.29 ± 1.43 % ID/g
- Biodistribution, lung [6, 12]: 0.61 ± 0.10 % ID/g
- Biodistribution, muscle [6, 12]: 1.08 ± 0.27 % ID/g
- Biodistribution, tumor [6, 12]: 0.27 ± 0.05 % ID/g
- Tumor/Blood ratio [6, 12]: 3.93 ± 0.41
- Tumor/Muscle ratio [6, 12]: 0.31 ± 0.05
- scan finding at diagnosis [2]: negative for bone marrow infiltration
- negative predictive value ([7]; in vivo): 83.4%
- overall institutional sensitivity for breast cancer detection ([7]; in vivo): 75.4%
- overall institutional specificity for breast cancer detection ([7]; in vivo): 82.7%
- positive predictive value ([7]; in vivo): 74.5%
- sensitivity for tumors under 1 cm in size ([7]; tumors under 1 cm): 48.2%

Compound: COc1cccc2c1C(=O)c1c(O)c3c(c(O)c1C2=O)C[C@@](O)(C(=O)CO)C[C@@H]3O[C@H]1C[C@H](N)[C@H](O)[C@H](C)O1 [doxorubicin]
- resistance of MCF7/D40 compared to MCF7/S [8]: 40 fold
